# Values joined by “and” are separate entries in the source; they are usually repeats but may differ in a detail not shown here. Identical values can stand only once.
# Legend:
# HEK293 [1] = experiment: Tested for the effect on whole cell maxi-K current in HEK 293 cells at 10 nM; format: functional, Homo sapiens
# HEK293 [2] = experiment: Tested for the effect on whole cell maxi-K current in HEK 293 cells at 100 nM; format: functional, Homo sapiens; design: unit not given here
# HEK293 [3] = experiment: Tested for the effect on whole cell maxi-K current in HEK 293 cells at 1000 nM; format: functional, Homo sapiens
# [4] = target: Calcium-activated potassium channel subunit alpha-1 KCNMA1 (Homo sapiens) (UniProt Q12791); experiment: Evaluation of maxi-K opening in Xenopus laevis oocytes injected with Hslo1 channels as percent of control current at 20 uM; settings: Oocyte
# [5] = target: Calcium-activated potassium channel subunit alpha-1 KCNMA1 (Homo sapiens) (UniProt Q12791); experiment: Evaluation of maxi-K opening in Xenopus laevis oocytes injected with Hslo1 channels as percent of control current at a concentration of 20 uM; settings: Oocyte
# [6] = Evaluated for Volume of distribution after iv administration of 5 mg/kg to male Sprague-Dawley rats; format: ADME, organism-based; design: dose 5 mg/kg, route intravenous; settings: rat, in vivo, read-out: Volume of distribution
# [7] = Evaluated for half-life after iv administration of 1 mg/kg to male Sprague-Dawley rats in plasma; format: ADME, organism-based; design: dose 1 mg/kg, route intravenous; settings: rat
# [8] = Evaluated for half-life after iv administration of 5 mg/kg to male Sprague-Dawley rats in brain; format: ADME, organism-based; design: dose 5 mg/kg, route intravenous; settings: rat
# [9] = Evaluated for half-life after iv administration of 5 mg/kg to male Sprague-Dawley rats in plasma; format: ADME, organism-based; design: dose 5 mg/kg, route intravenous; settings: rat
# [10] = Evaluated for plasma clearance after iv administration of 5 mg/kg to male Sprague-Dawley rats; format: ADME, organism-based; design: dose 5 mg/kg, route intravenous; settings: rat
# [11] = Evaluated for AUC after iv administration of 1 mg/kg to male Sprague-Dawley rats in plasma; format: ADME, organism-based; design: dose 1 mg/kg, route intravenous; settings: rat
# [12] = Evaluated for AUC after iv administration of 5 mg/kg to male Sprague-Dawley rats in brain; format: ADME, organism-based; design: dose 5 mg/kg, route intravenous; settings: rat
# [13] = Evaluated for AUC after iv administration of 5 mg/kg to male Sprague-Dawley rats in plasma; format: ADME, organism-based; design: dose 5 mg/kg, route intravenous; settings: rat
# [14] = Ratio of brain AUC versus plasma AUC; format: ADME, cell-free; settings: rat
# Calcium-activated potassium channel subunit alpha-1 KCNMA1 (Homo sapiens), sequence (Q12791 whole entry, looked up): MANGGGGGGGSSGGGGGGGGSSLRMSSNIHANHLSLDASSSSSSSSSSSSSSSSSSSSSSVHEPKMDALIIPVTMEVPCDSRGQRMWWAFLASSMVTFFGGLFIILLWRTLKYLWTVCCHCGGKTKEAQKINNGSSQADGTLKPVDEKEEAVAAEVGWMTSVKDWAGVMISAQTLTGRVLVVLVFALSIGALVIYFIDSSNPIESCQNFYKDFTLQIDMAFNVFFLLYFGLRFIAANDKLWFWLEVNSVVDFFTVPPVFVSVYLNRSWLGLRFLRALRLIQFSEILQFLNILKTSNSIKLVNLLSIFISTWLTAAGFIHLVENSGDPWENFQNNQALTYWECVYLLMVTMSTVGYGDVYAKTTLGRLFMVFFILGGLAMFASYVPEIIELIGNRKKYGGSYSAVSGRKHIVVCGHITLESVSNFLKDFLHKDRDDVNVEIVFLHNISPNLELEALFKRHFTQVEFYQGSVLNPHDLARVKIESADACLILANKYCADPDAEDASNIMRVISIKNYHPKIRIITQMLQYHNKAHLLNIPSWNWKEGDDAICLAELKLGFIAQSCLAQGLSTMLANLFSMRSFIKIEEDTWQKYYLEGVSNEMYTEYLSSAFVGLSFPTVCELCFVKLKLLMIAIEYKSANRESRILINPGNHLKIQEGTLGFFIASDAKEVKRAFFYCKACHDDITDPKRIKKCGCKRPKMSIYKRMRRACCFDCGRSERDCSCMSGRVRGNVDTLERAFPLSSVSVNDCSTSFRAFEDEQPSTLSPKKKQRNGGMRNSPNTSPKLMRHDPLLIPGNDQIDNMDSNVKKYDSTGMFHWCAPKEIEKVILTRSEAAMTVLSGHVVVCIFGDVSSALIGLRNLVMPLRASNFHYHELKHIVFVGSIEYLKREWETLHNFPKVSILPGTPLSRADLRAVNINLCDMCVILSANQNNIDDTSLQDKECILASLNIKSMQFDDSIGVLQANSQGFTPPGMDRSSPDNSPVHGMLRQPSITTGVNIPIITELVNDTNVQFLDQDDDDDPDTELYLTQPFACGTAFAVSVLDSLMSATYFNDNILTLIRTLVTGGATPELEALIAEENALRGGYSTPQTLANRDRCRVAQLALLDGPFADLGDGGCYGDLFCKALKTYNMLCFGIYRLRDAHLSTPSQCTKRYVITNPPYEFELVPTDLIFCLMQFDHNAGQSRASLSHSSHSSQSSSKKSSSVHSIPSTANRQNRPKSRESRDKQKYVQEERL
structure (smiles),measurement,setting,value
COc1ccc(Cl)cc1[C@@]1(F)C(=O)Nc2cc(C(F)(F)F)ccc21,Maxi-K current,HEK293 [1],105
same,Maxi-K current,HEK293 [2],164.4
same,Maxi-K current,HEK293 [3],205.3
COc1ccc(Cl)cc1C1(F)C(=O)Nc2c(C(F)(F)F)cccc21 (stereo not drawn),Maxi-K current,HEK293 [2],131.9 and 169.6
O=C1Nc2ccccc2C1(F)c1ccccc1 (stereo not drawn),remaining activity at 20 µM,[4],100%
O=C1Nc2cc(C(F)(F)F)ccc2C1(F)c1ccccc1 (stereo not drawn),remaining activity at 20 µM,[5],107%
COc1ccc(Cl)cc1[C@]1(F)C(=O)Nc2cc(C(F)(F)F)ccc21 [FLINDOKALNER],Vd,[6],5.8 L/kg
same,half-life,[7],108 min
same,half-life,[8],96 min
same,half-life,[9],114 min
same,clearance,[10],51.5 mL/min/kg
same,AUC,[11],320 ng·h/mL
same,AUC,[12],28800 ng·h/mL
same,AUC,[13],3000 ng·h/mL
same,Maxi-K current,HEK293 [1],127.8
same,Maxi-K current,HEK293 [2],185.3
same,Maxi-K current,HEK293 [3],247.4
same,Kp,[14],9.6
